One block for each molecule: values may come before it.
Test system: 996289-038-R-J1-PDC spheroid viability
Test: Anticancer human tumor 996289-038-R-J1-PDC patient-derived colon adenocarcinoma cell line growth inhibition [PI3K]
Conditions: spheroids with HUVEC and MSC; for IC50: curve of first compound; for viability, T/C: stronger effect = lower value
In short: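 Agents were dosed from a top concentration near clinical Cmax (otherwise 10 microM) in half-log decrements, alone or combined with PI3K inhibitors. The spheroids contain tumor cells plus endothelial (HUVEC) and MSC stroma; viability is measured.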

[1] = second compound 0.00316 µM, first compound 0.00949 µM
[2] = second compound 0.00316 µM, first compound 0.03 µM
[3] = second compound 0.00316 µM, first compound 0.0949 µM
[4] = second compound 0.00316 µM, first compound 0.3 µM
[5] = second compound 0.00316 µM, first compound 0.949 µM
[6] = second compound 0.00316 µM, first compound 3 µM
[7] = second compound 0.01 µM, first compound 0.00949 µM
[8] = second compound 0.01 µM, first compound 0.03 µM
[9] = second compound 0.01 µM, first compound 0.0949 µM
[10] = second compound 0.01 µM, first compound 0.3 µM
[11] = second compound 0.01 µM, first compound 0.949 µM
[12] = second compound 0.01 µM, first compound 3 µM
[13] = second compound 0.0316 µM, first compound 0.00949 µM
[14] = second compound 0.0316 µM, first compound 0.03 µM
[15] = second compound 0.0316 µM, first compound 0.0949 µM
[16] = second compound 0.0316 µM, first compound 0.3 µM
[17] = second compound 0.0316 µM, first compound 0.949 µM
[18] = second compound 0.0316 µM, first compound 3 µM
[19] = second compound 0.1 µM, first compound 0.00949 µM
[20] = second compound 0.1 µM, first compound 0.03 µM
[21] = second compound 0.1 µM, first compound 0.0949 µM
[22] = second compound 0.1 µM, first compound 0.3 µM
[23] = second compound 0.1 µM, first compound 0.949 µM
[24] = second compound 0.1 µM, first compound 3 µM
[25] = second compound 0.316 µM, first compound 0.00949 µM
[26] = second compound 0.316 µM, first compound 0.03 µM
[27] = second compound 0.316 µM, first compound 0.0949 µM
[28] = second compound 0.316 µM, first compound 0.3 µM
[29] = second compound 0.316 µM, first compound 0.949 µM
[30] = second compound 0.316 µM, first compound 3 µM
[31] = second compound 1 µM, first compound 0.00949 µM
[32] = second compound 1 µM, first compound 0.03 µM
[33] = second compound 1 µM, first compound 0.0949 µM
[34] = second compound 1 µM, first compound 0.3 µM
[35] = second compound 1 µM, first compound 0.949 µM
[36] = second compound 1 µM, first compound 3 µM
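Further: spheroids exposed to compounds for seven days before viability read.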
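Wherever viability, T/C is given: luminescence used as a proxy for viable cell amount; percent viability relative to DMSO vehicle control as 100%.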

IC50 (second compound 0.00316 µM): 0.147 µM
IC50 (second compound 0.01 µM): 0.074 µM
IC50 (second compound 0.0316 µM): 0.0496 µM
IC50 (second compound 0.1 µM): 0.0127 µM
IC50 (second compound 0.316 µM): < 0.00949 µM
IC50 (second compound 1 µM): < 0.00949 µM
Structure (SMILES): Cn1cnc2c(F)c(Nc3ccc(Br)cc3Cl)c(C(=O)NOCCO)cc21 + COc1c(OCCCN2CCOCC2)ccc2c3n(c(=NC(=O)c4cnc(N)nc4)nc12)CCN3
viability, T/C [1]: 85.8%
viability, T/C [2]: 64.4%
viability, T/C [3]: 62.2%
viability, T/C [4]: 38.7%
viability, T/C [5]: 28.2%
viability, T/C [6]: 20.1%
viability, T/C [7]: 79.3%
viability, T/C [8]: 65.1%
viability, T/C [9]: 45.5%
viability, T/C [10]: 29.7%
viability, T/C [11]: 28.5%
viability, T/C [12]: 16.8%
viability, T/C [13]: 71.3%
viability, T/C [14]: 59.1%
viability, T/C [15]: 38.2%
viability, T/C [16]: 28.8%
viability, T/C [17]: 19.2%
viability, T/C [18]: 12.5%
viability, T/C [19]: 54.1%
viability, T/C [20]: 39.2%
viability, T/C [21]: 27.6%
viability, T/C [22]: 18.6%
viability, T/C [23]: 12.5%
viability, T/C [24]: 5.57%
viability, T/C [25]: 34.1%
viability, T/C [26]: 24.5%
viability, T/C [27]: 15.1%
viability, T/C [28]: 10.6%
viability, T/C [29]: 6.3%
viability, T/C [30]: 4.03%
viability, T/C [31]: 15.6%
viability, T/C [32]: 14.3%
viability, T/C [33]: 9.32%
viability, T/C [34]: 5.03%
viability, T/C [35]: 4.84%
viability, T/C [36]: 2.93%

IC50 (second compound 0.00316 µM): 0.285 µM
IC50 (second compound 0.01 µM): 0.339 µM
IC50 (second compound 0.0316 µM): 0.206 µM
IC50 (second compound 0.1 µM): 0.0911 µM
IC50 (second compound 0.316 µM): 0.0389 µM
IC50 (second compound 1 µM): 0.0252 µM
Structure (SMILES): Cn1cnc2c(F)c(Nc3ccc(Br)cc3Cl)c(C(=O)NOCCO)cc21 + CC(Nc1ccc2c(c1)OCCn1cc(N3C(=O)OCC3C(F)F)nc1-2)C(N)=O
viability, T/C [1]: 100%
viability, T/C [2]: 84.9%
viability, T/C [3]: 64%
viability, T/C [4]: 51%
viability, T/C [5]: 35.1%
viability, T/C [6]: 26.2%
viability, T/C [7]: 95.9%
viability, T/C [8]: 74.2%
viability, T/C [9]: 71.6%
viability, T/C [10]: 49.9%
viability, T/C [11]: 36.3%
viability, T/C [12]: 24.7%
viability, T/C [13]: 95.3%
viability, T/C [14]: 79.7%
viability, T/C [15]: 58.6%
viability, T/C [16]: 44.1%
viability, T/C [17]: 35.6%
viability, T/C [18]: 23.7%
viability, T/C [19]: 84.7%
viability, T/C [20]: 69.3%
viability, T/C [21]: 47.3%
viability, T/C [22]: 35%
viability, T/C [23]: 26.7%
viability, T/C [24]: 18.5%
viability, T/C [25]: 60.6%
viability, T/C [26]: 53.4%
viability, T/C [27]: 41.8%
viability, T/C [28]: 31.1%
viability, T/C [29]: 24.9%
viability, T/C [30]: 13.7%
viability, T/C [31]: 58.7%
viability, T/C [32]: 48%
viability, T/C [33]: 38.4%
viability, T/C [34]: 27.4%
viability, T/C [35]: 18.9%
viability, T/C [36]: 11.4%

IC50 (second compound 0.0316 µM): > 10 µM
IC50 (second compound 0.1 µM): > 10 µM
IC50 (second compound 0.316 µM): > 10 µM
IC50 (second compound 1 µM): > 10 µM
IC50 (second compound 3.16 µM): > 10 µM
IC50 (second compound 10 µM): > 10 µM
Structure (SMILES): CNC(=O)c1ccc(N2C(=S)N(c3ccc(C#N)c(C(F)(F)F)c3)C(=O)C2(C)C)cc1F + CC(Nc1ncnc2nc[nH]c12)c1cc2cccc(Cl)c2c(=O)n1-c1ccccc1
viability, T/C (second compound 0.0316 µM, first compound 0.0316 µM): 96.5%
viability, T/C (second compound 0.0316 µM, first compound 0.1 µM): 104%
viability, T/C (second compound 0.0316 µM, first compound 0.316 µM): 110%
viability, T/C (second compound 0.0316 µM, first compound 1 µM): 110%
viability, T/C (second compound 0.0316 µM, first compound 3.16 µM): 118%
viability, T/C (second compound 0.0316 µM, first compound 10 µM): 119%
viability, T/C (second compound 0.1 µM, first compound 0.0316 µM): 130%
viability, T/C (second compound 0.1 µM, first compound 0.1 µM): 98.4%
viability, T/C (second compound 0.1 µM, first compound 0.316 µM): 93.6%
viability, T/C (second compound 0.1 µM, first compound 1 µM): 88.6%
viability, T/C (second compound 0.1 µM, first compound 3.16 µM): 105%
viability, T/C (second compound 0.1 µM, first compound 10 µM): 108%
viability, T/C (second compound 0.316 µM, first compound 0.0316 µM): 107%
viability, T/C (second compound 0.316 µM, first compound 0.1 µM): 106%
viability, T/C (second compound 0.316 µM, first compound 0.316 µM): 102%
viability, T/C (second compound 0.316 µM, first compound 1 µM): 110%
viability, T/C (second compound 0.316 µM, first compound 3.16 µM): 119%
viability, T/C (second compound 0.316 µM, first compound 10 µM): 103%
viability, T/C (second compound 1 µM, first compound 0.0316 µM): 94.7%
viability, T/C (second compound 1 µM, first compound 0.1 µM): 112%
viability, T/C (second compound 1 µM, first compound 0.316 µM): 98.2%
viability, T/C (second compound 1 µM, first compound 1 µM): 102%
viability, T/C (second compound 1 µM, first compound 3.16 µM): 114%
viability, T/C (second compound 1 µM, first compound 10 µM): 96.9%
viability, T/C (second compound 3.16 µM, first compound 0.0316 µM): 96.9%
viability, T/C (second compound 3.16 µM, first compound 0.1 µM): 102%
viability, T/C (second compound 3.16 µM, first compound 0.316 µM): 89.6%
viability, T/C (second compound 3.16 µM, first compound 1 µM): 109%
viability, T/C (second compound 3.16 µM, first compound 3.16 µM): 102%
viability, T/C (second compound 3.16 µM, first compound 10 µM): 110%
viability, T/C (second compound 10 µM, first compound 0.0316 µM): 98.9%
viability, T/C (second compound 10 µM, first compound 0.1 µM): 101%
viability, T/C (second compound 10 µM, first compound 0.316 µM): 83.1%
viability, T/C (second compound 10 µM, first compound 1 µM): 104%
viability, T/C (second compound 10 µM, first compound 3.16 µM): 98.8%
viability, T/C (second compound 10 µM, first compound 10 µM): 97.2%

Source: PubChem BioAssay AID1963965 (Molecular Pharmacology Branch, DTP, NCI, 2024)
